Common to all, as to assay type: biochemical
One test addresses T1, human granzyme A (Homo sapiens, UniProt P12544).
T1 sequence (P12544 29-262): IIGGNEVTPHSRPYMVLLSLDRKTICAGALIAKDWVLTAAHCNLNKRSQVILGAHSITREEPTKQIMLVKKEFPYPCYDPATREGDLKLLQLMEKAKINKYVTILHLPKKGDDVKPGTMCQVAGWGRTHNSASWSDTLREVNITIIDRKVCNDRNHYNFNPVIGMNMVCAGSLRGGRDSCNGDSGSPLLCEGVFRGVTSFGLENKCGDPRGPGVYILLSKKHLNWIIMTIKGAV
Briefly: Inactivation rate of human granzyme A, incubation method. As to conditions: Table I; 0.1M Hepes, 0.01M CaCl2 pH 7.5, 25° C., 7.6% DMSO, substrate Z--Arg--SBzl. The protocol:
(§1) Inactivation rates of serine proteases by aryl diesters of peptidyl derivatives of α-aminoalkylphosphonates were measured by the incubation method. An aliquot of inhibitor (25 or 50 μl) in Me2 SO was added to a buffered enzyme solution (0.01-2.3 μM) to initiate the inactivation. Aliquots (50 μl) were withdrawn at various intervals and the residual enzymatic activity was measured. Me2 SO concentration in the reaction mixture was 8-12% (v/v). A 0.1 M HEPES, 0.01 M CaCl2, pH 7.5 buffer was utilized for trypsin and trypsin-like enzymes. A 0.1 M HEPES, 0.5 M NaCl, pH 7.5, was utilized for the other serine proteases. Peptide thioesters or peptide nitroanilides with the appropriate sequences were used as substrates for various serine proteases. All peptide thioesters hydrolysis rates were measured with the assay mixture containing 4,4'-dithiodipyridine {ε324 =19800 M^-1 cm^-1; Grasetti & Murray, Arch. Biochem. Biophys. 1967, 119, 41-48}. Peptide 4-nitroanilide hydrolysis was measured at 410 nm {ε410 =8800 M^-1 cm^-1; Erlanger et al., Arch. Biochem. Biophys. 1961, 95, 271-278}. First order inactivation rate constants (Kobs) were obtained from plots of In vt /vo vs time, and the correlation coefficients were greater then 0.98.
(§2) ^a Inhibition constants were measured in 0.1M Hepes, 0.01M CaCl2
(§3) pH 7.5 for trypsin, granzymes A, and K, and in 0.1M Hepes, 10% glycerol,
(§4) 10 mM heparin, pH 7.5 for mast cell tryptase, and at 25° C. The
(§5) reaction mixtures contained 2% DMSO for trypsin, 7.6% for granzyme A, and
(§6) 7.1% for granzyme K and tryptase. The substrate was Z--Arg--SBzl for
(§7) granzymes and trypsin, and Z--Arg--SBzl or Z--Lys--SBzl for tryptase in
(§8) the presence of DTNB. The inhibitor # concentration ranged from 0.001 to
(§9) ^b NI, no inhibition after 25 min of incubation with enzyme.

For a further test, the target named is T2, rat granzyme K (Rattus norvegicus, UniProt P49864).
T2 sequence (P49864 26-258): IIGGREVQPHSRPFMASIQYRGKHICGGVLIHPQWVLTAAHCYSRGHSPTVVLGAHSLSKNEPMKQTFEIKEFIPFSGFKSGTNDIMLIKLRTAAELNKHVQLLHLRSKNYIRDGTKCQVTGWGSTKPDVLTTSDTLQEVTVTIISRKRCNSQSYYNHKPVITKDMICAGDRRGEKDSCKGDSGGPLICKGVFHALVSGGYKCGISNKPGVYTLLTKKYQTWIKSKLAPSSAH
Briefly: Inactivation rate of rat granzyme K, incubation method. The note with it: Table I; 0.1M Hepes, 0.01M CaCl2 pH 7.5, 25° C., 7.1% DMSO, substrate Z--Arg--SBzl; NI = no inhibition after 25 min of incubation. The method, then:
as §1, §2, §3, §4, §5, §6, §7, §8, §9

The next test deals with mast cell tryptase (Homo sapiens, UniProt Q15661). Briefly: Inactivation rate of mast cell tryptase, incubation method. The note with it: for kobsd /[I] mast cell tryptase: Table I, 0.1M Hepes, 10% glycerol, 10 mM heparin, pH 7.5, 25° C., 7.1% DMSO, NI = no inhibition after 25 min of incubation; for kobs /[I] mast cell tryptase: Table II, 0.07 μM tryptase, 20-66 μM inhibitor, Hepes pH 7.5, heparin, 9% glycerol, 8% DMSO, 25° C., NI = no inhibition. The method, then:
as §1, §2, §3, §4, §5, §6, §7, §8, §9
(§10) ^a Enzyme was incubated with the inhibitor in 250 μL of the proper
(§11) containing 428 mM NaCl and 8% DMSO; 0.07 μM tryptase, 20-66 μM
inhibitor # in an mM Hepes, pH 7.5 buffer containing 8 mM heparin, 166 m
NaCl, 0.8 mM Mes, 9% glycerol and 8% DMSO; 0.42 μM factor Xa, 66 μM
(§12) DMSO. Aliquots of 25 μL were withdrawn at various intervals and the
(§13) residual enzymatic activity was measured as described in experimental
(§14) section. The kobs values were calculated from pseudofirst-order
(§15) ^a Enzyme (0.06-0.5 μM) was incubated with the inhibitor (0.25-42
(§16) μM) in 250 μL of the proper buffer containing 9% DMSO at 25°
(§17) C. The final inhibition reaction mixtures are given in the footnote to
(§18) Table 1. Aliquots of 25 μL were withdrawn at various intervals and the […]

The target of another test is T3, bovine trypsin (Bos taurus, UniProt P00760).
T3 sequence (P00760 24-246): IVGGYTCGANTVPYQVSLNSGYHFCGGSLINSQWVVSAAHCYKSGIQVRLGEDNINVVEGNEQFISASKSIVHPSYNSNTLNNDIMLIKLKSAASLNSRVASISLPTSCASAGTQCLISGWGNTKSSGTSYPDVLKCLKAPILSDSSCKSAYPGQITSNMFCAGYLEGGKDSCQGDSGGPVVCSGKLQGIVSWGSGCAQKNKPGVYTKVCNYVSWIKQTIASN
Briefly: Inactivation rate of bovine trypsin, incubation method. As to conditions: for kobsd /[I] bovine trypsin: Table I, 0.1M Hepes, 0.01M CaCl2 pH 7.5, 25° C., 2% DMSO, substrate Z--Arg--SBzl, NI = no inhibition after 25 min; for kobs /[I] bovine trypsin: Table II, 0.13 μM trypsin, 0.25-42 μM inhibitor, 80 mM Hepes pH 7.5, 1 mM CaCl2, 8% DMSO, 25° C., NI = no inhibition. The method, then: as §1, §2, §3, §4, §5, §6, §7, §8, §9, §10
(§19) buffer at 25° C. Specifically, the inhibition reation mixtures wer
composed of: 0.13 μM trypsin, 0.25-42 μM inhibitor in an 80 mM
(§20) Hepes, pH 7.5 buffer containing 1 mM CaCl2 and 8% DMSO; 0.07 μM
as §12, §13, §14, §15, §16, §17, §18

In a further test the target is T4, human thrombin (Homo sapiens, UniProt P00734).
T4 construct: bovine trypsin, human thrombin
The note with it: Table II; 0.07 μM thrombin, 0.25-42 μM inhibitor, 80 mM Hepes pH 7.5, 428 mM NaCl, 8% DMSO, 25° C.; NI = no inhibition. The method, then: as §1, with “271-278}.” for “271-278}. First order inactivation rate constants (Kobs) were obtained from plots of In vt /vo vs time, and the correlation coefficients were greater then 0.98.”
as §10, §19, §20
thrombin, 0.25-42 μM inhibitor in an 80 mM Hepes, pH 7.5 buffer
as §11, §12, §13, §14, §15, §16, §17, §18

mast cell tryptase, sequence (Q15661 31-275): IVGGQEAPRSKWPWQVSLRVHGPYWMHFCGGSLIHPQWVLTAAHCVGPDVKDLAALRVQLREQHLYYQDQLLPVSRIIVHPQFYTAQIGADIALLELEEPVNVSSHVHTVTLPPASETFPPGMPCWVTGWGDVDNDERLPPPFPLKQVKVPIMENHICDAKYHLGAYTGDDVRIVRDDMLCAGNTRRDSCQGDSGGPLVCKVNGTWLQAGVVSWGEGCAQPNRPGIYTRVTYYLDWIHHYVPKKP

As to `CC(C)C(NC(=O)OCc1ccccc1)C(=O)NC(c1ccc(C(=N)N)cc1)P(=O)(Oc1ccccc1)Oc1ccccc1` (mixture of isomers) [Cbz--Val-(4-AmPhGly)^P (OPh)2], the “kobsd /[I] human granzyme A” value on human granzyme A was determined as 6.7 ± 0.1 M⁻¹ s⁻¹. In addition, the “kobsd /[I] rat granzyme K” value at rat granzyme K came out at 0.7 ± 0.04 M⁻¹ s⁻¹. Further, on mast cell tryptase, the “kobsd /[I] mast cell tryptase” value was found to be 21.2 ± 0.2 M⁻¹ s⁻¹ and the “kobs /[I] mast cell tryptase” value was 21.2 ± 0.2 M⁻¹ s⁻¹. In addition, on bovine trypsin, the “kobsd /[I] bovine trypsin” value turned out to be 41 ± 3 M⁻¹ s⁻¹ and the “kobs /[I] bovine trypsin” value came to 18 ± 2 M⁻¹ s⁻¹. The “kobs /[I] human thrombin” value at human thrombin came out at 5.5 ± 0.4 M⁻¹ s⁻¹.

Turning to `N=C(N)c1ccc(C(NC(=O)C2CCCN2C(=O)CNS(=O)(=O)Cc2ccccc2)P(=O)(Oc2ccccc2)Oc2ccccc2)cc1` (mixture of isomers) [PhCH2 SO2 --Gly--Pro-(4-AmPhGly)^P (OPh)2], on human granzyme A, the “kobsd /[I] human granzyme A” value came out at 3650 ± 180 M⁻¹ s⁻¹. Moreover, the “kobsd /[I] rat granzyme K” value on rat granzyme K was 87 M⁻¹ s⁻¹. For the same compound, at mast cell tryptase, the “kobsd /[I] mast cell tryptase” value is 2 M⁻¹ s⁻¹ and the “kobs /[I] mast cell tryptase” value was 2.0 ± 0.1 M⁻¹ s⁻¹. Also, on bovine trypsin, the “kobsd /[I] bovine trypsin” value came out at 37060 ± 986 M⁻¹ s⁻¹ and the “kobs /[I] bovine trypsin” value is listed as 37,060 ± 986 M^-1 s^-1. The “kobs /[I] human thrombin” value on human thrombin was 17,200 ± 128 M^-1 s^-1.

As for `N=C(N)c1ccc(C(NC(=O)C2CCCN2C(=O)CCc2ccccc2)P(=O)(Oc2ccccc2)Oc2ccccc2)cc1` (centres unmarked) [3-Phenylpropanoyl-Pro-(4-AmPhGly)^P (OPh)2], on human granzyme A, the “kobsd /[I] human granzyme A” value was found to be 1510 ± 217 M⁻¹ s⁻¹. Moreover, on rat granzyme K, the “kobsd /[I] rat granzyme K” value worked out at 50 ± 2 M⁻¹ s⁻¹. Moreover, on mast cell tryptase, the “kobsd /[I] mast cell tryptase” value is 0.4 M⁻¹ s⁻¹ and the “kobs /[I] mast cell tryptase” value stood at 0.4 M⁻¹ s⁻¹. At bovine trypsin, the “kobsd /[I] bovine trypsin” value was found to be 1520 ± 27 M⁻¹ s⁻¹ and the “kobs /[I] bovine trypsin” value is reported as 1,520 ± 27 M^-1 s^-1. Also, on human thrombin, the “kobs /[I] human thrombin” value is on record as 6,070 ± 68 M^-1 s^-1.

With `CC(C)(C)OC(=O)N[C@H](Cc1ccccc1)C(=O)N1CCC[C@H]1C(=O)NC(c1ccc(C(=N)N)cc1)P(=O)(Oc1ccccc1)Oc1ccccc1.Cl` (stereo partly drawn) [Boc--D--Phe--Pro-(4-AmPhGly)^P (OPh)2, Diphenyl N-(Boc-D-Phe-Pro)amino(4-amidinophenyl)methanephosphonate hydrochloride], the “kobsd /[I] human granzyme A” value on human granzyme A stood at 170 M⁻¹ s⁻¹. The “kobsd /[I] rat granzyme K” value at rat granzyme K amounted to 56 ± 2 M⁻¹ s⁻¹. Also, at mast cell tryptase, the “kobsd /[I] mast cell tryptase” value was 0.4 M⁻¹ s⁻¹. For the same compound, at bovine trypsin, the “kobsd /[I] bovine trypsin” value was 130 M⁻¹ s⁻¹ and the “kobs /[I] bovine trypsin” value is 2,200 M^-1 s^-1. Besides, the “kobs /[I] human thrombin” value on human thrombin is reported as 11,000 M^-1 s^-1.

In the case of `Cl.N=C(N)c1ccc(C(NC(=O)[C@@H]2CCCN2C(=O)OCc2ccccc2)P(=O)(Oc2ccccc2)Oc2ccccc2)cc1` (some centres unmarked) [Cbz--Pro-(4-AmPhGly)^P (OPh)2, Diphenyl N-(N-benzyloxycarbonylprolyl)amino(4-amidinophenyl)methanephosphonate hydrochloride], the “kobsd /[I] human granzyme A” value on human granzyme A amounted to 790 ± 17 M⁻¹ s⁻¹. Besides, at rat granzyme K, the “kobsd /[I] rat granzyme K” value stood at 34 ± 4 M⁻¹ s⁻¹. For the same compound, at mast cell tryptase, the “kobsd /[I] mast cell tryptase” value is 1.2 M⁻¹ s⁻¹ and the “kobs /[I] mast cell tryptase” value stood at 1 M⁻¹ s⁻¹. In addition, at bovine trypsin, the “kobsd /[I] bovine trypsin” value turned out to be 910 ± 81 M⁻¹ s⁻¹ and the “kobs /[I] bovine trypsin” value worked out at 910 ± 81 M⁻¹ s⁻¹. Besides, the “kobs /[I] human thrombin” value on human thrombin turned out to be 640 ± 86 M⁻¹ s⁻¹.

As for `C[C@H](NC(=O)[C@@H]1CCCN1C(=O)OCc1ccccc1)C(=O)NC(c1ccc(C(=N)N)cc1)P(=O)(Oc1ccccc1)Oc1ccccc1` (some centres unmarked) [Cbz--Pro--Ala-(4-AmPhGly)^P (OPh)2], the “kobsd /[I] human granzyme A” value on human granzyme A is 380 ± 18 M⁻¹ s⁻¹. In addition, the “kobsd /[I] rat granzyme K” value at rat granzyme K is 5 M⁻¹ s⁻¹. Moreover, at mast cell tryptase, the “kobsd /[I] mast cell tryptase” value is 1 M⁻¹ s⁻¹ and the “kobs /[I] mast cell tryptase” value was determined as 1 ± 0 M⁻¹ s⁻¹. On bovine trypsin, the “kobsd /[I] bovine trypsin” value came to 240 ± 10 M⁻¹ s⁻¹ and the “kobs /[I] bovine trypsin” value worked out at 240 ± 10 M⁻¹ s⁻¹. For the same compound, the “kobs /[I] human thrombin” value on human thrombin was determined as 70 ± 2 M⁻¹ s⁻¹.

The values above are taken from patent US5952307A, “Basic α-aminoalkylphosphonate derivatives” (priority 1997, dated 1999).
